# Results: patent publication US10919916B2, “Boron-containing small molecules” (Bill & Melinda Gates Foundation, priority 2016, dated 2021)
# Like-named read-outs stand apart in the source and are kept apart here.
# What was measured:
# [1] = test system: Staphylococcus aureus, MRSA (ATCC 33591); test: Antibacterial MIC assay (microbroth dilution, CLSI); format: cell-based; conditions: read-out: MIC Staphylococcus aureus, MRSA (ATCC 33591)
# From the text: (§1) All MIC testing of bacteria followed the Clinical and Laboratory Standards Institute (CLSI) guidelines for antimicrobial testing of aerobic bacteria (Methods for Dilution Antimicrobial Susceptibility Tests for Bacteria that Grow Aerobically; Approved Standard—Tenth Edition, M07-A10; Performance Standards for Antimicrobial Susceptibility Testing; Twenty-fifth Informational Supplement, M100-S25).
# (§2) Briefly, the microbroth dilution MIC method was used to quantitatively measure the in vitro antibacterial activity of a compound against a given bacterial isolate. The following bacterial strains were evaluated: Staphylococcus aureus, MRSA (ATCC 33591) and Streptococcus pneumoniae (ATCC 49619). Bacteria were grown in cation-adjusted Mueller-Hinton broth, with additions as required per species growth requirements (e.g. 3% lysed horse blood for fastidious organisms such as S. pneumoniae). A direct colony suspension in saline was prepared from colonies on an overnight agar plate to achieve a turbidity equivalent to 0.5 McFarland standard, which was subsequently diluted into the assay plate to achieve 5×10^5 CFU/mL. Assays plates were prepared by 2-fold dilution of compound across the plate and included a positive growth control.
# [2] = test system: Streptococcus pneumoniae (ATCC 49619); test: as above; format: cell-based
# From the text: as §1
# as §2, with “The following bacterial strains were evaluated: Staphylococcus aureus, MRSA (ATCC 33591) and Streptococcus pneumoniae (ATCC 49619).” left out
# [3] = ATCC49619, read-out: MIC Streptococcus pneumoniae (ATCC 49619)
# [4] = microbroth dilution, cation-adjusted Mueller-Hinton broth, 35° C. for 16-20 hours
# [5] = ATCC49619, microbroth dilution, 3% lysed horse blood, 35° C. for 16-20 hours, read-out: MIC Streptococcus pneumoniae (ATCC 49619)
"MIC [1, 4]","MIC [2, 5]",SMILES,MIC [1],"MIC [2, 3]"
–,–,"C=C[C@]1(C)C[C@@H](OC(=O)C[S@@+]([O-])c2ccc3c(c2)B(O)OC3)[C@]2(C)[C@H](C)CC[C@]3(CCC(=O)[C@H]32)[C@@H](C)[C@@H]1O [Compound 62, (3aR,4R,5R,7S,8S,9R,9aS,12R)-8-hydroxy-4,7,9,12-tetramethyl-3-oxo-7-vinyldecahydro-4,9a-propanocyclopenta[8]annulen-5-yl2-((R)-(1-hydroxy-1,3-dihydrobenzo[c][1,2]oxaborol-6-yl)sulfinyl)acetate]",< 0.25 µg/mL,0.5 to 2 µg/mL
–,–,"C=C[C@]1(C)C[C@@H](OC(=O)COc2ccc3c(c2)B(O)N(C(=O)OC)N=C3)[C@]2(C)[C@H](C)CC[C@]3(CCC(=O)[C@H]32)[C@@H](C)[C@@H]1O [Compound 91, Methyl 1-hydroxy-7-(2-(((3aR,4R,5R,7S,8S,9R,9aS,12R)-8-hydroxy-4,7,9,12-tetramethyl-3-oxo-7-vinyldecahydro-4,9a-propanocyclopenta[8]annulen-5-yl)oxy)-2-oxoethoxy)benzo[d][1,2,3]diazaborinine-2(1H)-carboxylate]",< 0.25 µg/mL,0.5 to 2 µg/mL
0.5 to 2 µg/mL,4 to 32 µg/mL,"C=C[C@]1(C)C[C@@H](OC(=O)CNc2cc3c(cc2CN)COB3O)[C@]2(C)[C@H](C)CC[C@]3(CCC(=O)[C@H]32)[C@@H](C)[C@@H]1O [Compound 47, (3aR,4R,5R,7S,8S,9R,9aS,12R)-8-hydroxy-4,7,9,12-tetramethyl-3-oxo-7-vinyldecahydro-4,9a-propanocyclopenta[8]annulen-5-yl (5-(aminomethyl)-1-hydroxy-1,3-dihydrobenzo[c][1,2]oxaborol-6-yl)glycinate]",–,–
–,–,"C=C[C@]1(C)C[C@@H](OC(=O)COc2ccc3c(c2C)B(O)OC3)[C@]2(C)[C@H](C)CC[C@]3(CCC(=O)[C@H]32)[C@@H](C)[C@@H]1O [Compound 9, (3aR,4R,5R,7S,8S,9R,9aS,12R)-8-hydroxy-4,7,9,12-tetramethyl-3-oxo-7-vinyldecahydro-4,9a-propanocyclopenta[8]annulen-5-yl2-((1-hydroxy-7-methyl-1,3-dihydrobenzo[c][1,2]oxaborol-6-yl)oxy)acetate]",< 0.25 µg/mL,0.5 to 2 µg/mL
< 0.25 µg/mL,0.5 to 2 µg/mL,"C=C[C@]1(C)C[C@@H](OC(=O)COc2ccc3c(c2F)B(O)OCC3)[C@]2(C)[C@H](C)CC[C@]3(CCC(=O)[C@H]32)[C@@H](C)[C@@H]1O [Compound 68, (3aR,4R,5R,7S,8S,9R,9aS,12R)-8-hydroxy-4,7,9,12-tetramethyl-3-oxo-7-vinyldecahydro-4,9a-propanocyclopenta[8]annulen-5-yl 2-((8-fluoro-1-hydroxy-3,4-dihydro-1H-benzo[c][1,2]oxaborinin-7-yl)oxy)acetate]",–,–
< 0.25 µg/mL,< 0.25 µg/mL,"C=C[C@]1(C)C[C@@H](OC(=O)COc2ccc3c(c2)B(O)N(C)N=C3)[C@]2(C)[C@H](C)CC[C@]3(CCC(=O)[C@H]32)C[C@@H]1O [Compound 83, (3aR,4R,5R,7S,8S,9aS,12R)-8-hydroxy-4,7,12-trimethyl-3-oxo-7-vinyldecahydro-4,9a-propanocyclopenta[8]annulen-5-yl 2-((1-hydroxy-2-methyl-1,2-dihydrobenzo[d][1,2,3]diazaborinin-7-yl)oxy)acetate]",–,–
–,–,"C=C[C@]1(C)C[C@@H](OC(=O)COc2cc3c(cc2F)COB3O)[C@]2(C)[C@H](C)CC[C@]3(CCC(=O)[C@H]32)[C@@H](C)[C@@H]1O [Compound 3, (3aR,4R,5R,7S,8S,9R,9aS,12R)-8-hydroxy-4,7,9,12-tetramethyl-3-oxo-7-vinyldecahydro-4,9a-propanocyclopenta[8]annulen-5-yl 2-((5-fluoro-1-hydroxy-1,3-dihydrobenzo[c][1,2]oxaborol-6-yl)oxy)acetate]",< 0.25 µg/mL,< 0.25 µg/mL
0.5 to 2 µg/mL,0.5 to 2 µg/mL,"C=C[C@]1(C)C[C@@H](OC(=O)Nc2ccc3c(c2)B(O)OC3)[C@]2(C)[C@H](C)CC[C@]3(CCC(=O)[C@H]32)[C@@H](C)C1=O [Compound 43, (3aR,4R,5R,7S,9R,9aS,12R)-4,7,9,12-tetramethyl-3,8-dioxo-7-vinyldecahydro-4,9a-propanocyclopenta[8]annulen-5-yl (1-hydroxy-1,3-dihydrobenzo[c][1,2]oxaborol-6-yl)carbamate]",–,–
–,–,"C=C[C@]1(C)C[C@@H](OC(=O)COc2ccc3c(c2)B(O)OC3C)[C@]2(C)[C@H](C)CC[C@]3(CCC(=O)[C@H]32)[C@@H](C)[C@@H]1O (stereo partly drawn) [Compound 19, (3aR,4R,5R,7S,8S,9R,9aS,12R)-8-hydroxy-4,7,9,12-tetramethyl-3-oxo-7-vinyldecahydro-4,9a-propanocyclopenta[8]annulen-5-yl 2-((1-hydroxy-3-methyl-1,3-dihydrobenzo[c][1,2]oxaborol-6-yl)oxy)acetate]",< 0.25 µg/mL,0.5 to 2 µg/mL
–,–,"C=C[C@]1(C)C[C@@H](OC(=O)COc2ccc3c(c2)B(O)ON=C3)[C@]2(C)[C@H](C)CC[C@]3(CCC(=O)[C@H]32)[C@@H](C)[C@@H]1O [Compound 96, (3aR,4R,5R,7S,8S,9R,9aS,12R)-8-hydroxy-4,7,9,12-tetramethyl-3-oxo-7-vinyldecahydro-4,9a-propanocyclopenta[8]annulen-5-yl 2-((1-hydroxy-1H-benzo[d][1,2,6]oxazaborinin-7-yl)oxy)acetate]",< 0.25 µg/mL,0.5 to 2 µg/mL
–,–,"C=C[C@]1(C)C[C@@H](OC(=O)COc2ccc3c(c2)B(O)OC3(C)C)[C@]2(C)[C@H](C)CC[C@]3(CCC(=O)[C@H]32)[C@@H](C)[C@@H]1O [Compound 20, (3aR,4R,5R,7S,8S,9R,9aS,12R)-8-hydroxy-4,7,9,12-tetramethyl-3-oxo-7-vinyldecahydro-4,9a-propanocyclopenta[8]annulen-5-yl 2-((1-hydroxy-3,3-dimethyl-1,3-dihydrobenzo[c][1,2]oxaborol-6-yl)oxy)acetate]",< 0.25 µg/mL,0.5 to 2 µg/mL
0.5 to 2 µg/mL,–,"C=C[C@]1(C)C[C@@H](OC(=O)COc2ccc3c(c2)B(O)OC3CN)[C@]2(C)[C@H](C)CC[C@]3(CCC(=O)[C@H]32)[C@@H](C)[C@@H]1O.Cl (stereo partly drawn) [Compound 21, (3aR,4R,5R,7S,8S,9R,9aS,12R)-8-hydroxy-4,7,9,12-tetramethyl-3-oxo-7-vinyldecahydro-4,9a-propanocyclopenta[8]annulen-5-yl 2-((3-(aminomethyl)-1-hydroxy-1,3-dihydrobenzo[c][1,2]oxaborol-6-yl)oxy)acetate Hydrochloride]",–,< 0.25 µg/mL
–,–,"C=C[C@]1(C)C[C@@H](OC(=O)COc2ccc3c(c2)B(O)N(C(=O)OC(C)(C)C)N=C3)[C@]2(C)[C@H](C)CC[C@]3(CCC(=O)[C@H]32)[C@@H](C)[C@@H]1O [Compound 71, tert-butyl 1-hydroxy-7-(2-(((3aR,4R,5R,7S,8S,9R,9aS,12R)-8-hydroxy-4,7,9,12-tetramethyl-3-oxo-7-vinyldecahydro-4,9a-propanocyclopenta[8]annulen-5-yl)oxy)-2-oxoethoxy)benzo[d][1,2,3]diazaborinine-2(1H)-carboxylate]",< 0.25 µg/mL,< 0.25 µg/mL
–,–,"C=C[C@]1(C)C[C@@H](OC(=O)COc2ccc3c(c2F)B(O)N(C)N=C3)[C@]2(C)[C@H](C)CC[C@]3(CCC(=O)[C@H]32)[C@@H](C)[C@@H]1O [Compound 85, (3aR,4R,5R,7S,8S,9R,9aS,12R)-8-hydroxy-4,7,9,12-tetramethyl-3-oxo-7-vinyldecahydro-4,9a-propanocyclopenta[8]annulen-5-yl 2-((8-fluoro-1-hydroxy-2-methyl-1,2-dihydrobenzo[d][1,2,3]diazaborinin-7-yl)oxy)acetate]",< 0.25 µg/mL,< 0.25 µg/mL
< 0.25 µg/mL,< 0.25 µg/mL,"C=C[C@]1(C)C[C@@H](OC(=O)COc2cc(CN)c3c(c2)B(O)OC3)[C@]2(C)[C@H](C)CC[C@]3(CCC(=O)[C@H]32)[C@@H](C)[C@@H]1O.Cl [Compound 12, (3aR,4R,5R,7S,8S,9R,9aS,12R)-8-hydroxy-4,7,9,12-tetramethyl-3-oxo-7-vinyldecahydro-4,9a-propanocyclopenta[8]annulen-5-yl 2-((4-(aminomethyl)-1-hydroxy-1,3-dihydrobenzo[c][1,2]oxaborol-6-yl)oxy)acetate Hydrochloride]",–,–
–,–,"C=C[C@]1(C)C[C@@H](OC(=O)COc2cc(CN)c3c(c2Cl)B(O)OC3)[C@]2(C)[C@H](C)CC[C@]3(CCC(=O)[C@H]32)[C@@H](C)[C@@H]1O [Compound 8, (3aR,4R,5R,7S,8S,9R,9aS,12R)-8-hydroxy-4,7,9,12-tetramethyl-3-oxo-7-vinyldecahydro-4,9a-propanocyclopenta[8]annulen-5-yl 2-((4-(aminomethyl)-7-chloro-1-hydroxy-1,3-dihydrobenzo[c][1,2]oxaborol-6-yl)oxy)acetate]",< 0.25 µg/mL,0.5 to 2 µg/mL
